Laboratory results published in patent US20050159345A1 (Boehringer Ingelheim International GmbH, priority 2002, published 2005).

How the values were obtained:
[1] = tested on: GBV-B; assay: Inhibition of GBV-B replication in tamarin hepatocytes in culture; type: cell-based
Procedure: Hepatocytes isolated from uninfected tamarins were maintained in culture in defined medium for several days. The cell culture model was as described by Beames et al. 2000. Three days after plating, the cells were infected with GBV-B-containing plasma. After viral adsorption, the virus was removed and the cells were incubated in the presence and absence of candidate test compounds at a concentration of 10 μM. The cells were harvested 7 days post infection. The levels of GBV-B RNA were quantitated from total cellular RNA by a real-time PCR assay using a primer-probe combination that recognized a portion of the GBV-B capsid gene (Beames et al. 2000).

[2] = biological target: T1, HCV genotype 1a NS3-NS4A protease (Hepatitis C virus genotype 1a, UniProt P27958); assay: Inhibition constant (Ki) determination and mode of inhibition, steady-state velocity, genotype 1a; type: biochemical
T1 construct: Co-purification of mature NS3 and NS4A protein complex was verified by Western blot analysis; made in house; host or cells: Sf21 insect cells, recombinant baculovirus (pFastBac HTa)
Procedure: The fluorogenic depsipeptide substrate anthranilyl-D(d)EIVP-Nva[C(O)—O] AMY(3-N2)TW—OH (SEQ ID No.13) was used to assess the mechanism of inhibition and the inhibition constants of the compound (IV) against HCV NS3-NS4A proteases. It was cleaved between the norvaline and the alanine residues. The substrate working solution was prepared in DMSO at the concentration of 200 μM from the substrate stock solution (2 mM in DMSO stored at —20° C.). The final substrate concentration in the assay varied from 0.25 to 8 μM. The inhibition constant (Ki) for compound (IV) was determined using a steady-state velocity method (Morrisson et al. 1985). The protease activity was determined by monitoring the fluorescence change associated with the cleavage of the internally quenched fluorogenic substrate using a SLM-AMINCO® 8100 spectrofluorometer ([…]). The cleavage reaction was monitored in the presence of 0.25 to 8 μM of substrate, 0.3 nM of HCV 1a or 1b NS3-NS4A heterodimer protein and various concentrations of the test compound IV in 50 mM Tris-HCl, pH 8.0, 0.25M sodium citrate, 0.01% n-dodecyl-β-D-maltoside, 1 mM TCEP. The steady-state analysis of inhibition of the HCV genotype 1a and 1b NS3-NS4A heterodimer proteases were performed using the Dixon and Cornish-Bowden graphical methods. […]

[3] = biological target: T2, HCV genotype 3a NS3-NS4A protease (UniProt Q81258); assay: Inhibition constant (Ki) determination, genotype 3a; type: biochemical; conditions: read-out: Ki HCV genotype 3a
T2 construct: fused on or other part: 28 extra N-terminal residues with a hexahistidine tag and an rTEV cleavage site
T2 sequence (Q81258 1033-1663): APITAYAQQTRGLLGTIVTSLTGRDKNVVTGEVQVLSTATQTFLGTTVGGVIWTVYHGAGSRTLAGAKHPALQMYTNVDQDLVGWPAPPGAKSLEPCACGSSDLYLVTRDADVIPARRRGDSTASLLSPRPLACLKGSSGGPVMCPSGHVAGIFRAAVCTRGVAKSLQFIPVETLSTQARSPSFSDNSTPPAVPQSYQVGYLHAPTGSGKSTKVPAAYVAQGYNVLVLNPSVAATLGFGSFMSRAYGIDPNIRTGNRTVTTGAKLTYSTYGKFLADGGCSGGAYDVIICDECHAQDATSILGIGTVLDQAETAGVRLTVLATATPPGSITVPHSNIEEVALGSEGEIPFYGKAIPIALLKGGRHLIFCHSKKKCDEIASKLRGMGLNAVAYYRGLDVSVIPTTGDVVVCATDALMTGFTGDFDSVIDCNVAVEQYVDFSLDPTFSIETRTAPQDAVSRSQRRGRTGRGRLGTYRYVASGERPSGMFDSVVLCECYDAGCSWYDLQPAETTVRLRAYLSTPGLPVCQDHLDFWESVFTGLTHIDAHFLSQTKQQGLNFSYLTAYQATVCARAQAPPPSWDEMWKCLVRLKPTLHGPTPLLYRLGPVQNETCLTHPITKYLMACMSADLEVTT

[4] = biological target: T3, HCV genotype 2a-c NS3-NS4A protease (UniProt P26660); assay: Inhibition constant (Ki) determination, genotype 2a-c; type: biochemical; conditions: read-out: Ki HCV genotype 2a-c
T3 sequence (P26660 1031-1661): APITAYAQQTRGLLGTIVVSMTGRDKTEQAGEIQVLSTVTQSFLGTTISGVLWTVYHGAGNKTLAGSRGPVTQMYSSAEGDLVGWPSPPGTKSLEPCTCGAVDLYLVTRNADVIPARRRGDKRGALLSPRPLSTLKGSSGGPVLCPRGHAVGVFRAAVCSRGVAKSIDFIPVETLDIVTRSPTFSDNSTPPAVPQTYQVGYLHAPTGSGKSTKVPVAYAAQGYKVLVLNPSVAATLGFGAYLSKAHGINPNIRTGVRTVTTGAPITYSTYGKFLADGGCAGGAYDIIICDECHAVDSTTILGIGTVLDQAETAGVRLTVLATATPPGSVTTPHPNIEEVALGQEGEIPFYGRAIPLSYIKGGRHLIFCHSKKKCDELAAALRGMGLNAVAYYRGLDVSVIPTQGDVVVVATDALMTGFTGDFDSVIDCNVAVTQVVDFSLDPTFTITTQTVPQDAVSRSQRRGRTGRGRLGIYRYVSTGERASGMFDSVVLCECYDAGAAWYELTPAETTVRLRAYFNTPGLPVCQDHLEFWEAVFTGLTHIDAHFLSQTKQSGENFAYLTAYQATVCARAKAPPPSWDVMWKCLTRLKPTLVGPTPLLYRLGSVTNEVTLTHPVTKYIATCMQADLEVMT

T1 sequence (P27958 1027-1657): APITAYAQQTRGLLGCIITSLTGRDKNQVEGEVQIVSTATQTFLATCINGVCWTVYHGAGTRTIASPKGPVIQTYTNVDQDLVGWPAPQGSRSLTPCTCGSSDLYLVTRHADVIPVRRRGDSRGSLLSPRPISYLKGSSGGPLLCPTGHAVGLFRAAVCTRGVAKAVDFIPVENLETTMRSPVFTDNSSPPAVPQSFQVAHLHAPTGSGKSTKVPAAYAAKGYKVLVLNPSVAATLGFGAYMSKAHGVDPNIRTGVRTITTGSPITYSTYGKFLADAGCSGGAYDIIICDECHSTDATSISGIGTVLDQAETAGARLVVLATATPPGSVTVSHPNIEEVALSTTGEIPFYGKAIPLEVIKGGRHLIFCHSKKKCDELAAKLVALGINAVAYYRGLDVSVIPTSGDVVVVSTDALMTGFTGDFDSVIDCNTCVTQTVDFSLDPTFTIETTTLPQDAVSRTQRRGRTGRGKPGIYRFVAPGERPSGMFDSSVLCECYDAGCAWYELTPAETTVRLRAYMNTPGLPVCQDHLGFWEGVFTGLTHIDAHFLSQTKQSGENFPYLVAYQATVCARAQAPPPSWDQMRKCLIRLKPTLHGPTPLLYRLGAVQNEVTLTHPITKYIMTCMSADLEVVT
T1 sequence (P27958 1658-1711): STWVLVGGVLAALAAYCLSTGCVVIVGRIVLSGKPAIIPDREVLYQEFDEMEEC

SMILES | inhibition of GBV-B replication (FIG. 7) [1] | reduction in the viral RNA levels ([1]; 10 μM, 7 days post infection, g.e./μg RNA) [log] | Ki [2] [nM] | mode of inhibition, HCV genotype 1a NS3-NS4A protease ([2]; Dixon and Cornish-Bowden plots, GraFit) | Ki [3] [nM] | Ki [4] [nM]
COc1ccc2c(O[C@@H]3C[C@H]4C(=O)N[C@]5(C(=O)O)CC5/C=C\CCCCC[C@H](NC(=O)OC(C)(C)C)C(=O)N4C3)cc(-c3csc(NC(C)=O)n3)nc2c1 (stereo partly drawn) [III] | dose-dependent inhibition | > 3 | – | – | – | –
COc1ccc2c(O[C@@H]3C[C@H]4C(=O)N[C@]5(C(=O)O)CC5/C=C\CCCCC[C@H](NC(=O)OC5CCCC5)C(=O)N4C3)cc(-c3csc(NC(C)C)n3)nc2c1 (stereo partly drawn) [IV] | – | – | 0.3 | competitive | 90 | 86
